According to ChEMBL document CHEMBL1121942, “Sparsophenicol: a new synthetic hybrid antibiotic inhibiting ribosomal peptide synthesis” (J Med Chem, 1982):

Experiments:
[1] = system: Escherichia coli; test: Tested for the percent inhibition against N-acetyl-L-phenylalanyl tRNA-70S Escherichia coli ribosome poly-U complex at 3.8*10e-4M concentration; type: functional
[2] = system: Escherichia coli; test: Tested for the inhibitory activity against N-acetyl-L-phenylalanyl tRNA-70S Escherichia coli ribosome poly-U complex; type: functional, organism-based

Row | SMILES | Inhibition [1] [%] | Ki [2] [µM]
1 | Cc1nc(O)nc(O)c1/C=C/C(=O)ON1C(=O)CCCC1=O | 20 | 
2 | Cc1nc(O)nc(O)c1/C=C/C(=O)N(C)C |  | 350
3 | Cc1nc(O)nc(O)c1/C=C/C(=O)NC(CO)C(O)c1ccc([N+](=O)[O-])cc1 (centres undefined) |  | 3
4 | COc1ccc(C[C@H](N)C(=O)N[C@H]2[C@@H](O)[C@H](n3cnc4c(N(C)C)ncnc43)O[C@@H]2CO)cc1 [PUROMYCIN] |  | 220
